Consider seven molecules from US20160311788A1, “Antifouling Compounds And Use Thereof” (National University of Singapore, priority 2008, published 2016).

Experiment [1] relates to marine bacteria strain S1. The experiment is described as follows: disc inhibition assay, strain S1. Particulars: strain 1, 50 μg of compound per disc. It counts as cell-based, Rhodovulum iodosum. Here is the method:
(§1) The disc inhibition assay was used. This assay is a conventional method routinely used for screening antibacterial compounds to determine degree of susceptibility to antibacterial compounds. The diameter of the zone of inhibition is proportional to the degree of susceptibility of the bacterial strain. The compounds were tested against 13 strains of marine bacteria isolated from Singapore coastal waters.
(§2) 13 strains of marine bacteria were isolated from fouling communities located in the coastal waters around Singapore. These were characterized in earlier studies and reported in Teo et al. (U.S. patent application Ser. No. 11/265,833) and Choong et al (in prep). In addition, four reference bacterial strains were added tested: Escherichia coli (Strain K12, ATCC 15222), E. coli (strain DH5a), Pseudomonas aeruginosa (strain LMG 12228; ATCC 15692) and P. putida (strain KT2440; ATCC 47054). All the bacteria were also tested against five antibiotics: ampicillin (AMP), tetracycline (TETR), erythromycin (ERY), chloramphenicol (CHL) and streptomycin (STREP).
(§3) Disks comprising the compounds to be tested were prepared as follows. The antibacterial assay, the pure compounds were made up to a concentration of 2 mgml^−1 in DMSO. 25 μl of the stock was pipetted onto each 6 mm sterile disc (Macherey-Nagel #484000) to obtain 50 μg of compound per disc. Equivalent volume of DMSO was used inoculated for the control.
(§4) For all disk inhibition assays, bacterial cultures were grown in marine broth (Pronadisa #1217.00). Sterile swabs dipped into the cultures were used to inoculate Marine Agar plates with a bacterial lawn by smearing the culture over the surface. After inoculating the plates, discs with antibiotics, pharmaceuticals or control blanks were placed on each plate. Each concentration of antibiotic or pharmaceutical was tested with two replicates. After the disks were placed on the agar surface, plates were incubated overnight in the dark at 35° C. After incubation, plates were examined for zones of inhibition or clearing around control and treated disks. The diameter of any zone of clearing or inhibition was measured using Vernier calipers. There were two replicates per treatment, and the average was taken.

Experiment [2] relates to marine bacteria strain S3. The experiment in a line: disc inhibition assay, strain S3. The settings on record: strain 3, 50 μg of compound per disc; for zone of inhibition at 50 µg/disc: Qipengyuania aquimaris, S3, 24 h, read-out: zone of inhibition. It counts as cell-based, Erythrobacter aquimaris. As to the method:
as §1, §2, §3, §4

The subject of experiment [3] is marine bacteria strain S4. The experiment in a line: disc inhibition assay, strain S4. It counts as cell-based, Bacillus algicola. The settings on record: strain 4, 50 μg of compound per disc; for zone of inhibition at 50 µg/disc: Guptibacillus algicola, S4, 24 h, read-out: zone of inhibition. Here is the method: as §1, §2, §3, §4
For experiment [4], the system named is marine bacteria strain S9. The experiment is described as follows: disc inhibition assay, strain S9. The format is cell-based, Bacillus algicola. The settings on record: strain 9, 50 μg of compound per disc; for zone of inhibition at 50 µg/disc: Guptibacillus algicola, S9, 24 h, read-out: zone of inhibition. As to the method: as §1, §2, §3, §4
In experiment [5] the test system is marine bacteria strain S10. The experiment in a line: disc inhibition assay, strain S10. The format is cell-based, Halobacillus trueperi. Particulars: strain 10, 50 μg of compound per disc; for zone of inhibition at 50 µg/disc: Halobacillus trueperi, S10, 24 h, read-out: zone of inhibition. Here is the method: as §1, §2, §3, §4
Experiment [6] has as its system marine bacteria strain S14. The experiment is described as follows: disc inhibition assay, strain S14. It counts as cell-based, Vibrio probioticus. The settings on record: strain 14, 50 μg of compound per disc. Here is the method: as §1, §2
(§5) Disks comprising the compounds to be tested were prepared as follows. The antibacterial assay, the pure compounds were made up to a concentration of 2 mgml^−1 in DMSO. […] Equivalent volume of DMSO was used inoculated for the control.
as §4

In experiment [7] the test system is marine bacteria strain S16. The experiment in a line: disc inhibition assay, strain S16. It counts as cell-based, Pseudoalteromonas piscicida. Particulars: for zone of inhibition at 50 µg/disc: Pseudoalteromonas piscicida, S16, 24 h. As to the method: as §1, §2, §3, §4
Experiment [8] relates to marine bacteria strain S17. The experiment in a line: disc inhibition assay, strain S17. The format is cell-based, Gordonia terrae. Particulars: strain 17, 50 μg of compound per disc; for zone of inhibition at 50 µg/disc: Gordonia terrae, S17, 24 h, read-out: zone of inhibition. As to the method:
as §1, §2, §3, §4

Experiment [9] concerns marine bacteria strain S18. The experiment in a line: disc inhibition assay, strain S18. Particulars: strain 18, 50 μg of compound per disc; for zone of inhibition at 50 µg/disc: Microbacterium esteraromaticum, S18, 24 h, read-out: zone of inhibition. The format is cell-based, Microbacterium esteraromaticum. Here is the method: as §1, §2, §5, §4
In experiment [10] the test system is marine bacteria strain S27. The experiment in a line: disc inhibition assay, strain S27. The format is cell-based, Tenacibaculum lutimaris. The settings on record: strain 27, 50 μg of compound per disc; for zone of inhibition at 50 µg/disc: Tenacibaculum lutimaris, S27, 24 h, read-out: zone of inhibition. As to the method: as §1, §2, §3, §4
Experiment [11] deals with marine bacteria strain S28. The experiment is described as follows: disc inhibition assay, strain S28. The format is cell-based, Arthrobacter protophormial. The settings on record: strain 28, 50 μg of compound per disc; for zone of inhibition at 50 µg/disc: Arthrobacter, S28, 24 h, read-out: zone of inhibition. Here is the method: as §1, §2, §3, §4
Experiment [12] concerns marine bacteria strain S29. The experiment is described as follows: disc inhibition assay, strain S29. The settings on record: strain 29, 50 μg of compound per disc; for zone of inhibition at 50 µg/disc: Guptibacillus hwajinpoensis, S29, 24 h, read-out: zone of inhibition. The format is cell-based, Bacillus hwajinpoensis. Here is the method:
as §1, §2, §3, §4

Experiment [13] deals with marine bacteria strain S30. The experiment in a line: disc inhibition assay, strain S30. It counts as cell-based, Bacillus borophilicus. Particulars: strain 30, 50 μg of compound per disc; for zone of inhibition at 50 µg/disc: Bacillus, S30, 24 h, read-out: zone of inhibition. Here is the method: as §1, §2, §3, §4
Experiment [14] has as its system cyprids of Balanus amphitrite. The experiment in a line: barnacle settlement assay. The format is in vivo. The settings on record: Amphibalanus amphitrite, 24 h, Table 3(a); concentration that caused 50% settlement inhibition, 24 hours, cyprids; read-out: ED50 (the source's name). As to the method:
Pure compounds were suspended in DMSO and sonicated to obtain a stock solution of 50 mg ml^−1 in DMSO. This stock solution is stored at −20° C. in 4 ml amber screw cap vials. For the bioassays, a small volume of stock solution was added to 1 μm filtered seawater in a glass scintillation vial. This suspension was then sonicated around 10 minutes. Serial dilutions were generated to the required range of concentrations. Serial dilution of the equivalent amounts of DMSO in seawater was used as the control.
The barnacle bioassay method used follows from the method first introduced by Rittschof et al. (1992), and subsequently by other authors (Willemsen et al., 1998). This method is now standard practice for many antifouling screening of novel compounds.
Barnacle settlement assays were based on methodology from Rittschof et al. (1992). Barnacle larvae from field-collected adults were reared on an algal mixture of 1:1 v/v of Tetraselmis suecica and Chaetoceros muelleri at 25° C., at approximately 5×10^5 cells per ml density. On this regime, larvae metamorphose to cyprids in 5 days. These cyprids were aged at 4° C. for 2-3 days, and 45-70% settlement after 24 hours (Willemsen et al., 1998).
Settlement tests were conducted in 7 ml neutral glass vials (Samco® T1 03N1) 34 mm by 23 mm diameter, with 20-40 cyprids per well. Test solutions were made up to twice the required final concentration. 0.5 ml of test solution was added into each well, and cyprids were transferred into each well in 0.5 ml of seawater. Assays were done in triplicate. As before, there were two sets of controls, a blank control consisting 3 tubes of seawater only, and DMSO control consisting of the equivalent dilution series with DMSO without compound. After 24 hours, larvae that had attached and metamorphosed were enumerated and the result expressed as percentage settlement. Larvae not attached were scored as not settled. The assays were repeated and the concentration that caused 50% settlement inhibition (ED50) was determined by pro bit analysis using a basic computer program (Lieberman, 1983), or by estimation from graphed data.

Where [15] appears, read: strain 16, 50 μg of compound per disc.

Like-named read-outs stand apart in the source and are kept apart here.

Turning to `CN1CCC(O)(c2ccc(Cl)cc2)CC1` [Compound 4.6], the zone of inhibition entry in experiment [1], in [2], in [3], in experiment [5], in experiment [6] and in experiment [8] was “−” each time. In addition, the zone of inhibition entry in [9], in experiment [10], in experiment [11], in experiment [12] and in [13] was “−” in each case. Also, the zone of inhibition at 50 µg/disc in experiment [4] and in [7] was 2 to 5 mm in each case. Besides, in experiment [14], the IC50 was under 10 µg/mL.

For the molecule `CCCCCC(=O)N(C)C` [Compound 11.2], the zone of inhibition result in experiment [1], in experiment [2], in [3], in [4], in [5] and in experiment [6] was “−” in each case. The zone of inhibition entry in [8], in experiment [9], in [10], in experiment [11], in [12] and in [13] was “−” each time. Also, the zone of inhibition – broadly, the extent of the growth-free halo in a diffusion test – at 50 µg/disc in experiment [7] (strain 16, 50 μg of compound per disc, read-out: zone of inhibition) lay within 2 to 5 mm. Further, the “antibacterial activity in words” value in experiment [7] (strain S16) is recorded as “susceptible”.

Regarding `CCCCC(C(=O)N1CCCCC1)c1ccccc1` (stereo not drawn) [Compound 12.1, 2-Phenyl-1-(piperidin-1-yl)hexan-1-one], the zone of inhibition result in experiment [1], in experiment [6] and in experiment [7] (setting [15]) was “−” in each case. Further, the zone of inhibition at 50 µg/disc in [2] was in the range of 5 to 10 mm; in [3], 2 to 5 mm; in experiment [4], 2 to 5 mm; in [5], 2 to 5 mm; in experiment [8] it was 2 to 5 mm; in experiment [9] it was 2 to 5 mm. The zone of inhibition at 50 µg/disc in experiment [10], in [11], in [12] and in experiment [13] was 2 to 5 mm in each case.

In the case of `C=CCCCCC(C(=O)N1CCCCC1)c1ccccc1` (stereo not drawn) [Compound 12.4], the zone of inhibition result in [1], in experiment [6], in experiment [7] (setting [15]), in experiment [11] and in [13] was “−” in each case. Moreover, the zone of inhibition at 50 µg/disc in experiment [2] is over 10 mm; in experiment [3] it was 2 to 5 mm; in experiment [4] it was 2 to 5 mm; in experiment [5], 2 to 5 mm; in [8] it was 2 to 5 mm; in experiment [9], 5 to 10 mm. Further, the zone of inhibition at 50 µg/disc in [10] and in experiment [12] was 2 to 5 mm each time.

Regarding `O=C(C(CCCCC(O)CO)c1ccccc1)N1CCCCC1` (stereo not drawn) [Compound 12.5], the zone of inhibition entry in [1], in experiment [2], in [3], in experiment [4], in experiment [5] and in [6] was “−” throughout. Also, the zone of inhibition entry in [7] (setting [15]), in experiment [8], in experiment [9], in experiment [10], in experiment [11] and in experiment [13] was “−” throughout. In experiment [12], the zone of inhibition at 50 µg/disc is 2 to 5 mm.

As for `CCCCC(CCCCC(O)CO)C(=O)N1CCCCC1` (stereo not drawn) [Compound 12.6], the zone of inhibition entry in [1], in experiment [2], in experiment [3], in experiment [4], in experiment [5] and in experiment [6] was “−” each time. For the same molecule, the zone of inhibition result in [7] (setting [15]), in [8], in experiment [9], in experiment [10], in experiment [11] and in [12] was “−” throughout. For the same molecule, the zone of inhibition entry in [13] is “−”.

Regarding `C=CCCCCC(CCCC)C(=O)N1CCCCC1` (stereo not drawn) [Compound 12.7], the zone of inhibition at 50 µg/disc in experiment [1] (Rhodovulum iodosum, S1, read-out: zone of inhibition) was 2 to 5 mm; in experiment [2] it was over 10 mm; in experiment [3], 5 to 10 mm; in experiment [4], 5 to 10 mm; in experiment [5] it was 5 to 10 mm; in [8], 5 to 10 mm. Further, the zone of inhibition at 50 µg/disc in experiment [9] is over 10 mm; in experiment [10], 2 to 5 mm; in experiment [11] it was 2 to 5 mm; in experiment [12], 2 to 5 mm; in experiment [13], 2 to 5 mm. For the same molecule, the zone of inhibition entry in experiment [6] and in [7] (setting [15]) was “−” throughout.
